The target in experiment [1] is Muscarinic acetylcholine receptor. As to the kind of experiment: Inhibitory concentration required for in vitro binding affinity to cholinergic central muscarinic receptor on rat brain cortex by using [3H]OXO-M.
In experiment [2] the target is T1, Neuronal acetylcholine receptor; alpha3/beta2 (Homo sapiens, UniProt P17787+P32297). As to the kind of experiment: Inhibitory concentration required for in vitro binding affinity to Nicotinic acetylcholine receptor alpha3-beta2 expressed on cell line sf 9 by using [3H]-MCC. On the set-up: species or system Rattus norvegicus.
T1 sequence (P17787 whole entry): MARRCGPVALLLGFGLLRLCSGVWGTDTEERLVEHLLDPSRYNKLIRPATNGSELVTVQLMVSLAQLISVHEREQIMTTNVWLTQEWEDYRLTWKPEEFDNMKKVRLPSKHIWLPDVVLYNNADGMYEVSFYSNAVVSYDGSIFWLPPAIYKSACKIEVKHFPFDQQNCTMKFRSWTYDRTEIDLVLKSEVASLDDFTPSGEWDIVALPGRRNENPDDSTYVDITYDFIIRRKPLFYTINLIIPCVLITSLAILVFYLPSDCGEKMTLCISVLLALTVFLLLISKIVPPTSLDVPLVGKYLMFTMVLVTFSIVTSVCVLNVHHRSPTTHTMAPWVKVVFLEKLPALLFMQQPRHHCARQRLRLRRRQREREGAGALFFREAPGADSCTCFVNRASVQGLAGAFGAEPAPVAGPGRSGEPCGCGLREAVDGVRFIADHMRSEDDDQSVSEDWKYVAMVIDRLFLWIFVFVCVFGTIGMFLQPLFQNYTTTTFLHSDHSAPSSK
T1 sequence (P32297 whole entry): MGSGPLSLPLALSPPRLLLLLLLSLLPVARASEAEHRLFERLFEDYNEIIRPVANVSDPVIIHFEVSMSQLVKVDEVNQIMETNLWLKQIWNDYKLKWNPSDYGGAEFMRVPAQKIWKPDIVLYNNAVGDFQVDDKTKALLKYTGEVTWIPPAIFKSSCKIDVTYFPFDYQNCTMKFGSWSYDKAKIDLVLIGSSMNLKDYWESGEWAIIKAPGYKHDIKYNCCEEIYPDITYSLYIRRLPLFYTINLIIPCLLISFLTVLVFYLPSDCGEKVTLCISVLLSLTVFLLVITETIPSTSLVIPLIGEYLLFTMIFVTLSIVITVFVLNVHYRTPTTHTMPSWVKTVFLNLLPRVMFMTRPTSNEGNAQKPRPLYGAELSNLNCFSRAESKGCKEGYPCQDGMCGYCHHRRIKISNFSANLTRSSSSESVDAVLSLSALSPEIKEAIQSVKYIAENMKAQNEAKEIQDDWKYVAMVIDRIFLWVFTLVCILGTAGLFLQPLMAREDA
Experiment [3] can be described thus: Inhibitory concentration required for in vitro binding affinity to Nicotinic acetylcholine receptor alpha4-beta2 expressed on cell line sf 21 by using [3H]MCC.
In experiment [4] the test system is Rattus norvegicus. The experiment can be described thus: Compound was tested in vivo against effective nicotinic agonistic activity in rat when administered s.c. In kind it is functional. The conditions noted are these: sc.
Experiment [5] is described as follows: Inhibitory concentration required for in vitro binding affinity to Nicotinic acetylcholine receptor alpha4-beta2 expressed on cell line Sf 21 by using [3H]MCC.
Experiment [6] concerns Mus musculus. As to the kind of experiment: Compound was tested in vivo for exploratory locomotor activity in mice after subcutaneous administration. In kind it is functional. The conditions noted are these: sc.
The species named for experiment [7] is Rattus norvegicus. The experiment can be described thus: Compound was tested for inducing [3H]dopamine release from striatal slices at 1 uM nicotine. In kind it is functional.
The species entered for experiment [8] is Xenopus sp. As to the kind of experiment: Compound was tested for inducing stimulation of current response in Xenopus oocytes (alpha4-beta2) at 1 uM. In kind it is functional, frog.
The species named for experiment [9] is Xenopus sp. The experiment can be described thus: Compound was tested for inducing stimulation of current response in Xenopus oocytes (alpha3-beta2) at 30 uM. The class given is functional, frog.
The target of experiment [10] is T1, Neuronal acetylcholine receptor; alpha3/beta2. As to the kind of experiment: Inhibitory concentration required for in vitro binding affinity to Nicotinic acetylcholine receptor alpha3-beta2 expressed on cell line Sf 9 by using [3H]MCC. On the set-up: species or system Rattus norvegicus.
In experiment [11] the test system is Mus musculus. The experiment can be described thus: Compound was tested in vivo for exploratory locomotor activity in mice after peroral administration. In kind it is functional. The conditions noted are these: po.
Experiment [12] concerns Rattus norvegicus. The experiment can be described thus: Compound was tested in vivo against effective nicotinic agonistic activity in rat. In kind it is functional.
Experiment [13] is filed under the species Rattus norvegicus. The experiment can be described thus: Compound was tested for inducing [3H]-dopamine release from striatal slices at 10 uM nicotine. In kind it is functional.
For experiment [14], the target named is Neuronal acetylcholine receptor. As to the kind of experiment: Inhibitory concentration required for in vitro binding affinity to cholinergic central Nicotinic acetylcholine receptor on rat brain cortex by using [3H]MCC.
The subject of experiment [15] is Rattus norvegicus. As to the kind of experiment: The compound was tested in vivo against effective nicotinic agonistic activity in rat when administered s.c. The class given is functional. The conditions noted are these: sc.
Experiment [16] is filed under the species Rattus norvegicus. The experiment can be described thus: The compound was tested for inducing [3H]dopamine release from striatal slices at 10 uM nicotine. In kind it is functional.
Experiment [17] is filed under the species Rattus norvegicus. The experiment can be described thus: The compound was tested for inducing [3H]dopamine release from striatal slices at 1 uM nicotine. The class given is functional.
Experiment [18] is described as follows: Inhibitory concentration required for in vitro binding affinity to Nicotinic acetylcholine receptor alpha4-beta2 expressed on cell line sf 21 by using [3H]-MCC.
The subject of experiment [19] is Rattus norvegicus. The experiment can be described thus: The compound was tested in vivo against effective nicotinic agonistic activity in rat. The class given is functional.

A value given as a limit tells only on which side of the number the result lay.

One may read the IC50 as the concentration that gives 50% inhibition. High values mean lower potency, low ones higher potency. As for `Cc1cc(/C=C2/CN3CCC2CC3)on1`, the half-inhibitory concentration (IC50) in [1] was 1500 nM; in experiment [2], 854 nM; in [3] it was 288 nM.

What is called ED50 is the dose that gives a 50% effect, or the effect in half of the subjects. The low end stands for greater potency, the high end for weaker potency. For `Cc1cc(/C=C2\CN3CCC2C3)on1` (stereo not drawn), the figures for the ED50 in the experiment on Rattus norvegicus [4], with Mus musculus [6] and in the experiment on Mus musculus [11] were 0.5 mg/kg, 4.1 mg/kg and 2 mg/kg, respectively. Moreover, the IC50 in [5] was 11 nM; in experiment [10], 15 nM; in experiment [1] it was 1200 nM; in experiment [14] it was 23 nM. Moreover, the figures for the Activity in the experiment listed under Rattus norvegicus [7], in the experiment on Rattus norvegicus [12] and in the experiment listed under Rattus norvegicus [13] were 38%, 63% and 80%, respectively. The Response in the experiment listed under Xenopus sp. [8] was determined as 171%; in the experiment listed under Xenopus sp. [9], 51%.

Regarding `Cc1cc(/C=C2\CN3CCC2CC3)on1`, the ED50 with Mus musculus [6] came to 0.4 mg/kg; with Rattus norvegicus [15] it was 0.1 mg/kg; with Mus musculus [11], 2.4 mg/kg. The values for the Response in the experiment listed under Xenopus sp. [8] and in the experiment listed under Xenopus sp. [9] were 300% and 135%, respectively. Moreover, the results for the Activity in the experiment listed under Rattus norvegicus [16], in the experiment listed under Rattus norvegicus [17] and with Rattus norvegicus [19] were 68%, 51% and 60%, respectively. Moreover, the IC50 in [18] was 1.4 nM; in experiment [1] it was 1000 nM; in [2], 1.9 nM; in [14], 3.4 nM.

With `Cc1cc(/C=C2/CN3CCC2C3)on1` (stereo not drawn), the ED50 with Rattus norvegicus [4] turned out to be 0.2 mg/kg. In the experiment listed under Xenopus sp. [9], this molecule returned a Response of 38%. The Activity in the experiment listed under Rattus norvegicus [16] was determined as 46%; in the experiment listed under Rattus norvegicus [17] it was 17%; with Rattus norvegicus [12], 62%. In addition, the IC50 in experiment [18] was found to be 6.5 nM; in [1] it was 2800 nM; in experiment [2] it was 14 nM; in [14] it was 26 nM.

Take `Cc1cc(/C=C2\CN3CCCC2C3)on1` (stereo not drawn): the IC50 in experiment [18] stood at 26 nM; in experiment [1] it was 950 nM; in [2] it was 217 nM; in [14], 170 nM.

On to `Cc1cc(C=C2CN3CCCC2C3)on1` (stereo not drawn), for which the IC50 in experiment [18] turned out to be 41 nM; in [1] it was 1700 nM; in experiment [2] it was 117 nM; in experiment [14], 85 nM.

For the molecule `CN1CCC[C@H]1c1cccnc1` [NICOTINE], the ED50 in the experiment with Mus musculus [6] is 0.3 mg/kg; in the experiment on Rattus norvegicus [15] it was 0.04 mg/kg; with Mus musculus [11], over 9 mg/kg. In addition, the Response in the experiment listed under Xenopus sp. [8] and in the experiment listed under Xenopus sp. [9] was 100% each time. The Activity in the experiment listed under Rattus norvegicus [16] is 180%; in the experiment filed under Rattus norvegicus [17], 100%; in the experiment on Rattus norvegicus [19], 96%. Further, in experiment [18], the IC50 stood at 4.2 nM.

Turning to `Cc1cc([C@@H]2CCCN2C)on1` [ABT-418], the ED50 in the experiment with Rattus norvegicus [4] stood at 0.2 mg/kg; with Mus musculus [6], 10 mg/kg; in the experiment with Mus musculus [11], 72 mg/kg. The Response in the experiment listed under Xenopus sp. [8] came to 24%; in the experiment filed under Xenopus sp. [9] it was 40%. The Activity in the experiment listed under Rattus norvegicus [16] is on record as 66%; in the experiment listed under Rattus norvegicus [17], 5%; in the experiment on Rattus norvegicus [12] it was 72%. The IC50 in experiment [18] came out at 37 nM; in experiment [2], 62 nM.

The values above are taken from ChEMBL document CHEMBL1159188, “Identification of novel (isoxazole)methylene-1-azabicyclic compounds with high affinity for the central nicotinic cholinergic receptor” (Bioorg Med Chem Lett, 1997).
